Source: ChEMBL document CHEMBL3627609, “A fragment of the Escherichia coli ClpB heat-shock protein is a micromolar melanocortin 1 receptor agonist” (Bioorg Med Chem Lett, 2015)
Activity calls are given as the source filed them. No cut-off for these calls is given here.

What was measured:
[1] = molecular target: Melanocortin receptor 5 (Mus musculus) (UniProt P41149); assay: Agonist activity at mouse melanocortin 5 receptor expressed in HEK293 cells at 100 uM by AlphaScreen cAMP assay; format: functional, cell-based
Melanocortin receptor 5 (Mus musculus), sequence (P41149 whole entry): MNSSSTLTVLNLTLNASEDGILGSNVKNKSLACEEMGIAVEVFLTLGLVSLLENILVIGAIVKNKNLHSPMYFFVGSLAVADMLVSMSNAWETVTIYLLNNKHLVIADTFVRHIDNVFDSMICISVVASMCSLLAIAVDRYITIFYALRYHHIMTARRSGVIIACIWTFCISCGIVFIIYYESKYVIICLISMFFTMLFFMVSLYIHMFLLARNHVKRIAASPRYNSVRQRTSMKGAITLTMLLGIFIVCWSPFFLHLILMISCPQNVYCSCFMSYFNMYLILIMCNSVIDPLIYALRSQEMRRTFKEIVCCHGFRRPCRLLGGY

[2] = molecular target: Melanocortin receptor 3 (Mus musculus) (UniProt P33033); assay: Antagonist activity at mouse melanocortin 3 receptor expressed in HEK293 cells using NDP-MSH as agonist by Schild analysis; format: cell-based
Melanocortin receptor 3 (Mus musculus), sequence (P33033 whole entry): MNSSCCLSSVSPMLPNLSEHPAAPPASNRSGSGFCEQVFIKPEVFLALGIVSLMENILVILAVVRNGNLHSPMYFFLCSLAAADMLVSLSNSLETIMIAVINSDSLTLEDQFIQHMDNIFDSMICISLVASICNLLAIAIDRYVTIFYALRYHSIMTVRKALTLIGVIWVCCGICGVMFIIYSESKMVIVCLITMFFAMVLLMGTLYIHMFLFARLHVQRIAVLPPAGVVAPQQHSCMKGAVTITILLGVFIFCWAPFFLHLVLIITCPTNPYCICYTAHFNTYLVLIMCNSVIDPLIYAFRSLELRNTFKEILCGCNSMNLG

[3] = molecular target: Melanocortin receptor 4 (Mus musculus) (UniProt P56450); assay: Antagonist activity at mouse melanocortin 4 receptor expressed in HEK293 cells using NDP-MSH as agonist by Schild analysis; format: cell-based
Melanocortin receptor 4 (Mus musculus), sequence (P56450 whole entry): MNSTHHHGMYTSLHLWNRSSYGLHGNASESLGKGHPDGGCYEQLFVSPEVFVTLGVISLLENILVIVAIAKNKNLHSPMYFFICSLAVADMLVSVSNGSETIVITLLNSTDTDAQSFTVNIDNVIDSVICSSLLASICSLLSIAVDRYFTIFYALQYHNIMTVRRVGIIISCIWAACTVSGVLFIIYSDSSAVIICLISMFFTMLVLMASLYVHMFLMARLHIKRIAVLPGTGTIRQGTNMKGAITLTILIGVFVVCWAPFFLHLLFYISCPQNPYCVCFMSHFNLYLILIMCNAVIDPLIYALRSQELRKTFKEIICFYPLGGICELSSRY

Melanocortin receptor 4 = Melanocortin receptor 4 (Mus musculus, UniProt P56450); assay: Agonist activity at mouse melanocortin 4 receptor expressed in HEK293 cells by AlphaScreen cAMP assay; format: functional, cell-based
Melanocortin receptor 4, sequence (P56450 whole entry): as above

[4] = molecular target: Melanocyte-stimulating hormone receptor (Mus musculus, UniProt Q01727); assay: Agonist activity at mouse melanocortin 1 receptor expressed in HEK293 cells by AlphaScreen cAMP assay; format: functional, cell-based
Melanocyte-stimulating hormone receptor, sequence (Q01727 whole entry): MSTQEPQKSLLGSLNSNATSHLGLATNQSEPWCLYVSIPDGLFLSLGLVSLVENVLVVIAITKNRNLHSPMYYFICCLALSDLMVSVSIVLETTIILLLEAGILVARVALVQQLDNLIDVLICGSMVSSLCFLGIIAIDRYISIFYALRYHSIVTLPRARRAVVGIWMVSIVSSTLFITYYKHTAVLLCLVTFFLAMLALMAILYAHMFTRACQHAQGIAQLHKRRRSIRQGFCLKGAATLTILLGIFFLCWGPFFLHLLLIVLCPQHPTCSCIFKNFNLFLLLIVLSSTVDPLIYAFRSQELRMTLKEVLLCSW

[5] = molecular target: Melanocortin receptor 3 (Mus musculus) (UniProt P33033); assay: Agonist activity at mouse melanocortin 3 receptor expressed in HEK293 cells at 100 uM by AlphaScreen cAMP assay; format: functional, cell-based

Activity [1]: 50% | inhibition [2]: inactive | inhibition [3]: inactive | EC50 (Melanocortin receptor 4): > 100 µM | EC50 [4]: 41 µM | Activity [5]: 30%
Substance: Ac-EIAEVLARWTGIPV-NH2
